In patent publication US20250160350A1, “BIOACTIVE MOLECULES IN YOGURT” (Phytoquest Limited, priority 2022, published 2025):
Counter-ions that a name gives are not always drawn. Like-named read-outs stand apart in the source and are kept apart here.

Experiments:
[1] = target: T1, human recombinant β-glucocerebrosidase (Cerezyme) (Homo sapiens, UniProt P04062, R534H); assay: β-glucocerebrosidase assay (Cerezyme/imiglucerase, PNP β-glucopyranoside, pH 5.9); format: biochemical; settings: for % inhibition Cerezyme (β-glucocerebrosidase) / inhibition at 5000 µg/mL: Conc 5 mg/ml; for % inhibition glucocerebrosidase (GC) Genzyme: 0.8 mM; for effect on β-glucocerebrosidase activity, in words: in vitro; for inhibition at 10000 µg/mL: Conc 10 mg/ml
T1 construct: purchased Genzyme, Europe
T1 sequence (P04062 40-536 R534H): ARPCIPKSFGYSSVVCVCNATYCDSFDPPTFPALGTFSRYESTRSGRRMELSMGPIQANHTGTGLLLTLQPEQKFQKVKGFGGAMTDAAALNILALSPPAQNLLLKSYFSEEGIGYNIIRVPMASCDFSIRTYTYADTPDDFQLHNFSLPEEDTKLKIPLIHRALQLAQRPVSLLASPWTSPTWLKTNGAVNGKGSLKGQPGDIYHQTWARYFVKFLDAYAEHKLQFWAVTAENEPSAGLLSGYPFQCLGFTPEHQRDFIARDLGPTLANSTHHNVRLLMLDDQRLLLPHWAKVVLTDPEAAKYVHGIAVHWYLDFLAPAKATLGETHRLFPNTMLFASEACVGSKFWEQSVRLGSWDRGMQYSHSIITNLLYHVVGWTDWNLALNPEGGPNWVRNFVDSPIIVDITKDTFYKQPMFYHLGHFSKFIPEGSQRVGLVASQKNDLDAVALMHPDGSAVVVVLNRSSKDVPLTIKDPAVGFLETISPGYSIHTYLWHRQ
Description: An exemplary assay is-uses human recombinant imiglucerase (obtained from Genzyme, Europe) and is conducted at 27° C. in 0.1 M citric acid/0.2 M disodium hydrogen phosphate buffer at pH 5.9. The incubation mixture consists of 10 μL of enzyme solution, 10 μL of aqueous solution of test material (e.g., yogurt, yogurt extract or isolated cyclic guanidine compound) at the required concentration and 50 μL of 5 mM para-nitrophenyl (PNP) B glucopyranoside (Sigma-Aldrich) made up in buffer at pH 5.9. The reactions are stopped by addition of 70 μL 0.4 M glycine (pH 10.4) during the exponential phase of the reaction, which is previously determined using uninhibited assays in which water replaces inhibitor. Final absorbances were read at 405 nm using a Versamax microplate reader (Molecular Devices). Assays are carried out in triplicate, and the values given are means of the three replicates per assay. A negative value indicates enzyme activation.
Glycosidase assays. Most enzymes and para-nitrophenyl substrates were purchased from Sigma with the exception of human recombinant β-glucocerebrosidase (Cerezyme) obtained from Genzyme, Europe. Pure iminosugars which inhibit β-glucosidases (DMDP and calystegine B2) were used as controls. Yogurt samples were tested at 1 mg/ml. Enzymes were assayed at 27° C. in 0.1 M citric acid/0.2 M disodium hydrogen phosphate buffers at the optimum pH for the enzyme (pH 5.9 for Cerezyme). The incubation mixture consisted of 10 μL enzyme solution, 10 μL of 1 mg/mL aqueous inhibitor solution and 50 μL of the appropriate 5 mM para-nitrophenyl substrate made up in buffer at the optimum pH for the enzyme. Cerezyme was assayed against para-nitrophenyl (PNP) β-glucopyranoside. […] Final absorbances were read at 405 nm using a Versamax microplate reader (Molecular Devices). Assays were performed in triplicate and the mean percentage inhibitions used. A negative value indicates enzyme activation.
Glycosidase Assays. β-glucocerebrosidase enzyme (Human recombinant imiglucerase, obtained from Genzyme, Europe) were carried at 27° C. in 0.1 M citric acid/0.2 M disodium hydrogen phosphate buffer at pH 5.9. The incubation mixture consisted of 10 μL of enzyme solution, 10 μL of aqueous solution of extract or compound at the required concentration and 50 μL of 5 mM para-nitrophenyl (PNP) β-glucopyranoside (Sigma-Aldrich) made up in buffer at pH 5.9. […] Final absorbances were read at 405 nm using a Versamax microplate reader (Molecular Devices). Assays were carried out in triplicate and the values given are means. Results are shown as % inhibition where a negative value indicates enzyme activation.
β-glucocerebrosidase enzyme (Human recombinant imiglucerase, obtained from Genzyme, Europe) were carried at 27° C. in 0.1 M citric acid/0.2 M disodium hydrogen phosphate buffer at pH 5.9. […] Final absorbances were read at 405 nm using a Versamax microplate reader (Molecular Devices). Assays were carried out in triplicate, and the values given are means of the three replicates per assay. A negative value indicates enzyme activation.

GCase [2] = settings: PD patients with and without GBA1 mutation; cited from earlier work
GCase [3] = settings: literature (Ambrosi et al. 2015); cited from earlier work
[4] = test system: N-acetyl-β-D-gluc Jack bean; assay: Glycosidase assay, N-acetyl-β-D-gluc Jack bean; format: biochemical; settings: 0.8 mM; negative value = activation
Description: (§1) Glycosidase assays. Most enzymes and para-nitrophenyl substrates were purchased from Sigma with the exception of human recombinant β-glucocerebrosidase (Cerezyme) obtained from Genzyme, Europe. Pure iminosugars which inhibit β-glucosidases (DMDP and calystegine B2) were used as controls. Yogurt samples were tested at 1 mg/ml. Enzymes were assayed at 27° C. in 0.1 M citric acid/0.2 M disodium hydrogen phosphate buffers at the optimum pH for the enzyme (pH 5.9 for Cerezyme). The incubation mixture consisted of 10 μL enzyme solution, 10 μL of 1 mg/mL aqueous inhibitor solution and 50 μL of the appropriate 5 mM para-nitrophenyl substrate made up in buffer at the optimum pH for the enzyme. Cerezyme was assayed against para-nitrophenyl (PNP) β-glucopyranoside. The reactions were stopped by addition of 70 μL 0.4 M glycine (pH 10.4) during the exponential phase of the reaction, which had been determined at the beginning using uninhibited assays in which water replaced inhibitor. Final absorbances were read at 405 nm using a Versamax microplate reader (Molecular Devices). Assays were performed in triplicate and the mean percentage inhibitions used. A negative value indicates enzyme activation.

α-D-glucosidase Bacillus = assay: Glycosidase assay, α-D-glucosidase Bacillus; format: biochemical; settings: 0.8 mM; negative value = activation
Description: as §1

β-D-mannosidase C. fimi = assay: Glycosidase assay, β-D-mannosidase C. fimi; format: biochemical; settings: 0.8 mM; negative value = activation
Description: as §1

[5] = target: T2, α-D-mannosidase Jack bean (Canavalia ensiformis, UniProt C0HJB3); assay: Glycosidase assay, α-D-mannosidase Jack bean; format: biochemical; settings: 0.8 mM; negative value = activation
T2 construct: purchased Sigma
T2 sequence (C0HJB3 1-981): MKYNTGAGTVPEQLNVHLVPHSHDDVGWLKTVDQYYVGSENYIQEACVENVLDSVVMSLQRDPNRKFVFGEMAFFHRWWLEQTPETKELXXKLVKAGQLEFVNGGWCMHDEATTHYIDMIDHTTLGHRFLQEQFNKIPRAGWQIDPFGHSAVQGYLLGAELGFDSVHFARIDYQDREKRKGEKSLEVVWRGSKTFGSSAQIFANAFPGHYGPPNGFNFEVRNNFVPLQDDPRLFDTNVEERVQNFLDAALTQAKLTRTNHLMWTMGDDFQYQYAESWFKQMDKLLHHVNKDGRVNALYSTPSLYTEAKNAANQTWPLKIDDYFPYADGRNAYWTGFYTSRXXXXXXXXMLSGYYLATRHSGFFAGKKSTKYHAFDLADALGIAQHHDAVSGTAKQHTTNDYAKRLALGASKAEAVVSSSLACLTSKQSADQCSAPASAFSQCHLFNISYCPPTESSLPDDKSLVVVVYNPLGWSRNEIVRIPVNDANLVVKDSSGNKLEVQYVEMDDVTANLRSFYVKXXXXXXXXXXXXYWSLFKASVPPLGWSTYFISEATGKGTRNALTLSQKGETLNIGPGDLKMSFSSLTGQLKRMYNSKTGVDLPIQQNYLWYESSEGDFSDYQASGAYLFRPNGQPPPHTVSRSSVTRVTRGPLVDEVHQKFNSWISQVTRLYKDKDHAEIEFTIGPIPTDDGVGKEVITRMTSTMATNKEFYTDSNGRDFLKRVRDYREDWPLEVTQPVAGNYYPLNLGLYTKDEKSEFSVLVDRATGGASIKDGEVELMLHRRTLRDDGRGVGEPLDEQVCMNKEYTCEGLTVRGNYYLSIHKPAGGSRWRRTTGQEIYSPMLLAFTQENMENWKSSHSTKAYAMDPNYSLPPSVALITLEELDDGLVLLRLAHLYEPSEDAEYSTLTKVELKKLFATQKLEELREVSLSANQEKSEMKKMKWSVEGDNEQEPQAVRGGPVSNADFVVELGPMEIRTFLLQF
Description: as §1

[6] = target: T3, α-D-galactosidase Green coffee (Coffea arabica, UniProt Q42656); assay: Glycosidase assay, α-D-galactosidase Green coffee; format: biochemical; settings: 0.8 mM; negative value = activation
T3 construct: purchased Sigma
Description: as §1

[7] = test system: β-D-galactosidase bovine liver; assay: Glycosidase assay, β-D-galactosidase bovine liver; format: biochemical; settings: 0.8 mM; negative value = activation
Description: as §1

β-D-glucosidase almond = assay: Glycosidase assay, β-D-glucosidase almond; format: biochemical; settings: negative value = activation
Description: as §1

[8] = test system: α-D-glucosidase rat intestine; assay: Glycosidase assay, α-D-glucosidase rat intestine; format: biochemical; settings: 0.8 mM; negative value = activation
Description: as §1

α-D-glucosidase Yeast = assay: Glycosidase assay, α-D-glucosidase Yeast; format: biochemical; settings: negative value = activation
Description: as §1

[9] = test system: N-acetyl-β-D gluc Bovine kidney; assay: Glycosidase assay, N-acetyl-β-D gluc Bovine kidney; format: biochemical; settings: negative value = activation; for % inhibition N-acetyl-β-D gluc Bovine kidney: 0.8 mM
Description: as §1

GCase [10] = settings: in vitro and in mice, tissue-specific (Sun et al. 2012); cited from earlier work
[11] = pH 5.9, negative value = activation

T3 sequence (Q42656 16-378): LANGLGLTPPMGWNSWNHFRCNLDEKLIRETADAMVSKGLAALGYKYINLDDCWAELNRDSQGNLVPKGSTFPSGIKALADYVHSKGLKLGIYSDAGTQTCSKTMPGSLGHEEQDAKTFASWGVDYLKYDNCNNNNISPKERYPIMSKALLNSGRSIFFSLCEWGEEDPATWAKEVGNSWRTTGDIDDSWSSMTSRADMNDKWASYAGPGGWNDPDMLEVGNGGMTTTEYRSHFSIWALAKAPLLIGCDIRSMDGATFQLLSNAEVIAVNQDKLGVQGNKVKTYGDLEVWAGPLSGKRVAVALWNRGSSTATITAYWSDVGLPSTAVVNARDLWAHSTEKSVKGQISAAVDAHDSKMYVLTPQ

O=C(O)c1ccc(=O)[nH]c1 [6-OH-nicotinic acid]
% inhibition Cerezyme (β-glucocerebrosidase) [1, 11]: −1.4%

Cn1cc(C(=O)O)ccc1=O [6-OH-trigonelline]
% inhibition Cerezyme (β-glucocerebrosidase) [1, 11]: 8.6%

Nc1c(Br)cc(Br)cc1CN[C@H]1CC[C@H](O)CC1 [Ambroxol hydrochloride]
GCase activity in patients (GCase [2]): increased the GCase activity
GCase activity (GCase [3]): enhance GCase activity
α-syn clearance (GCase [3]): increase α-syn clearance

O[C@@H]1[C@@H](O)[C@H](O)[C@]2(O)CC[C@H]1N2 [Calystegine B2]
% inhibition N-acetyl-β-D-gluc Jack bean [4]: 0%
% inhibition α-D-glucosidase Bacillus (α-D-glucosidase Bacillus): −5%
% inhibition β-D-mannosidase C. fimi (β-D-mannosidase C. fimi): −5%
% inhibition α-D-mannosidase Jack bean [5]: 8%
% inhibition α-D-galactosidase Green coffee [6]: 99%
% inhibition β-D-galactosidase bovine liver [7]: 44%
% inhibition β-D-glucosidase almond (β-D-glucosidase almond; 0.8 mM): 96%
% inhibition glucocerebrosidase (GC) Genzyme [1, 11]: 100%
% inhibition α-D-glucosidase rat intestine [8]: 22%
% inhibition α-D-glucosidase Yeast (α-D-glucosidase Yeast; 0.8 mM): 18%
% inhibition N-acetyl-β-D gluc Bovine kidney [9]: 0%

CN1C(=N)NC[C@H]1C(=O)O [Compound 1, (S)-2-imino-3-methylimidazolidine-4-carboxylic acid]
% inhibition β-D-glucosidase almond (β-D-glucosidase almond; 8 mM): 20%
effect on β-glucocerebrosidase activity, in words [1]: strong promotion equalling that of the yogurt purified compound
effect on β-glucocerebrosidase activity, in words ([1]; listed as (S)-2-imino-3-methylimidazolidine-4-carboxylic acid): effective at promoting the enzyme activity in vitro
% inhibition α-D-glucosidase Yeast (α-D-glucosidase Yeast; 8 mM): 44%
% inhibition N-acetyl-β-D-gluc Bovine kidney ([9]; 8 mM): 34%

OC[C@H]1N[C@H](CO)[C@@H](O)[C@@H]1O [DMDP]
% inhibition N-acetyl-β-D-gluc Jack bean [4]: −7%
% inhibition α-D-glucosidase Bacillus (α-D-glucosidase Bacillus): 93%
% inhibition β-D-mannosidase C. fimi (β-D-mannosidase C. fimi): 93%
% inhibition α-D-mannosidase Jack bean [5]: 3%
% inhibition α-D-galactosidase Green coffee [6]: 7%
% inhibition β-D-galactosidase bovine liver [7]: 99%
% inhibition β-D-glucosidase almond (β-D-glucosidase almond; 0.8 mM): 97%
% inhibition glucocerebrosidase (GC) Genzyme [1, 11]: 44%
% inhibition α-D-glucosidase rat intestine [8]: 77%
% inhibition α-D-glucosidase Yeast (α-D-glucosidase Yeast; 0.8 mM): 100%
% inhibition N-acetyl-β-D gluc Bovine kidney [9]: −7%

Nc1ncnc2nc[nH]c12 [adenine]
inhibition at 10000 µg/mL [1, 11]: -22%
effect on β-glucocerebrosidase activity, in words [1]: some promotion activity but weaker than that seen with the yogurts

C[N+](C)(C)CC(=O)O [betaine]
inhibition at 10000 µg/mL [1, 11]: 0.1%

O=C(O)/C=C/c1ccc(O)c(O)c1 [caffeic acid]
inhibition at 5000 µg/mL [1, 11]: -1.8%

O=C(/C=C/c1ccc(O)c(O)c1)O[C@@H]1C[C@](O)(C(=O)O)C[C@@H](O)[C@H]1O [chlorogenic acid]
inhibition at 5000 µg/mL [1, 11]: 57.1%
effect on β-glucocerebrosidase activity, in words [1]: inhibited the enzyme

Nc1cc[nH]c(=O)n1 [cytosine]
inhibition at 10000 µg/mL [1, 11]: -1.6%

OC[C@H]1CNC[C@@H](O)[C@@H]1O [isofagomine]
GCase activity (GCase [10]): increase GCase activity in vitro and in mice

NC(=O)c1cccnc1 [nicotinamide]
inhibition at 5000 µg/mL [1, 11]: -11.3%

O=C(O)c1cccnc1 [nicotinic acid]
inhibition at 5000 µg/mL [1, 11]: -12.7%

O=c1c(O)c(-c2ccc(O)c(O)c2)oc2cc(O)cc(O)c12 [quercetin]
inhibition at 5000 µg/mL [1, 11]: 39.4%
effect on β-glucocerebrosidase activity, in words [1]: inhibited the enzyme

C[n+]1cccc(C(=O)[O-])c1 [trigonelline]
inhibition at 1000 µg/mL ([1]; Conc 1 mg/ml, pH 5.9, negative value = activation): 3.1%
inhibition at 5000 µg/mL [1, 11]: -12.6%

O=c1cc[nH]c(=O)[nH]1 [uracil]
inhibition at 5000 µg/mL [1, 11]: 4.5%
